According to ChEMBL document CHEMBL3885881, “DrugMatrix”:

Species on record: Rattus norvegicus
Experiment: DrugMatrix - Regimen: Daily Repeat
Type: toxicity, organism-based, Sprague-Dawley
Design: regimen Daily Repeat, gender Male, age 6-8 weeks
Settings: in vivo, po, route oral GAVAGE, vehicle .5 % CMC; for ABSOLUTE BASOPHIL / ABSOLUTE EOSINOPHIL / ABSOLUTE LYMPHOCYTE / ABSOLUTE MONOCYTE / ABSOLUTE SEGMENTED NEUTROPHIL / BASOPHIL / EOSINOPHIL / ERYTHROCYTE COUNT / HEMATOCRIT / HEMOGLOBIN / LEUKOCYTE COUNT / LYMPHOCYTE / MEAN CORPUSCULAR HEMOGLOBIN / MEAN CORPUSCULAR HEMOGLOBIN CONCENTRATION / MEAN CORPUSCULAR VOLUME / MONOCYTE / NEUTROPHIL / NUCLEATED RED BLOOD CELLS / PLATELET COUNT: tissue Blood; for ALANINE AMINOTRANSFERASE / ALBUMIN / ALKALINE PHOSPHATASE / ASPARTATE AMINOTRANSFERASE / BLOOD UREA NITROGEN / CARBON DIOXIDE / CHLORIDE / CHOLESTEROL / CREATINE PHOSPHOKINASE / CREATININE / GLUCOSE / LACTATE DEHYDROGENASE / LIPASE / PHOSPHORUS / POTASSIUM / SODIUM / TOTAL BILIRUBIN / TOTAL PROTEIN / URIC ACID: tissue Plasma
[1] = 3 mg/kg, 120 h, dose level Low, time 5 day
[2] = 17 mg/kg, 72 h, dose level High, time 3 day
[3] = 17 mg/kg, 120 h, dose level High, time 5 day

SMILES: COc1nc(C)nc(Cl)c1N=C1NCCN1 [MOXONIDINE]
- ABSOLUTE BASOPHIL [1]: 0 CELLS/uL
- ABSOLUTE EOSINOPHIL [1]: 0 CELLS/uL
- ABSOLUTE LYMPHOCYTE [1]: 12936.33 CELLS/uL
- ABSOLUTE MONOCYTE [1]: 47.33 CELLS/uL
- ABSOLUTE SEGMENTED NEUTROPHIL [1]: 1849.67 CELLS/uL
- BASOPHIL [1]: 0%
- EOSINOPHIL [1]: 0%
- ERYTHROCYTE COUNT [1]: 5.72 x10E6/uL
- HEMATOCRIT [1]: 36.07%
- HEMOGLOBIN [1]: 14.37 G/DL
- LEUKOCYTE COUNT [1]: 14.83 x10E3/uL
- LYMPHOCYTE [1]: 87%
- MEAN CORPUSCULAR HEMOGLOBIN [1]: 25.13 pg
- MEAN CORPUSCULAR HEMOGLOBIN CONCENTRATION [1]: 39.8 G/DL
- MEAN CORPUSCULAR VOLUME [1]: 63.1 fL
- MONOCYTE [1]: 0.33%
- NEUTROPHIL [1]: 12.67%
- NUCLEATED RED BLOOD CELLS [1]: 0.33 /100WBC
- PLATELET COUNT [1]: 943.67 x10E3/uL
- ALANINE AMINOTRANSFERASE [1]: 44.67 u/L
- ALBUMIN [1]: 4.13 G/DL
- ALKALINE PHOSPHATASE [1]: 346 u/L
- ASPARTATE AMINOTRANSFERASE [1]: 83.67 u/L
- BLOOD UREA NITROGEN [1]: 17.67 mg/dL
- CARBON DIOXIDE [1]: 29.33 mmol/L
- CHLORIDE [1]: 98 MEQ/L
- CHOLESTEROL [1]: 69.67 mg/dL
- CREATINE PHOSPHOKINASE [1]: 484.67 u/L
- CREATININE [1]: 0.19 mg/dL
- GLUCOSE [1]: 147 mg/dL
- LACTATE DEHYDROGENASE [1]: 166.67 u/L
- LIPASE [1]: 10 u/L
- PHOSPHORUS [1]: 13.4 mg/dL
- POTASSIUM [1]: 6.24 MEQ/L
- SODIUM [1]: 145.27 MEQ/L
- TOTAL BILIRUBIN [1]: 0.2 mg/dL
- TOTAL PROTEIN [1]: 6.03 G/DL
- URIC ACID [1]: 1.57 mg/dL
- ABSOLUTE BASOPHIL [2]: 0 CELLS/uL
- ABSOLUTE EOSINOPHIL [2]: 110.67 CELLS/uL
- ABSOLUTE LYMPHOCYTE [2]: 13070 CELLS/uL
- ABSOLUTE MONOCYTE [2]: 298.67 CELLS/uL
- ABSOLUTE SEGMENTED NEUTROPHIL [2]: 1454 CELLS/uL
- BASOPHIL [2]: 0%
- EOSINOPHIL [2]: 0.67%
- ERYTHROCYTE COUNT [2]: 6.02 x10E6/uL
- HEMATOCRIT [2]: 36.53%
- HEMOGLOBIN [2]: 14.5 G/DL
- LEUKOCYTE COUNT [2]: 14.93 x10E3/uL
- LYMPHOCYTE [2]: 87.33%
- MEAN CORPUSCULAR HEMOGLOBIN [2]: 24.07 pg
- MEAN CORPUSCULAR HEMOGLOBIN CONCENTRATION [2]: 39.67 G/DL
- MEAN CORPUSCULAR VOLUME [2]: 60.63 fL
- MONOCYTE [2]: 2%
- NEUTROPHIL [2]: 10%
- NUCLEATED RED BLOOD CELLS [2]: 0 /100WBC
- PLATELET COUNT [2]: 1171.33 x10E3/uL
- ALANINE AMINOTRANSFERASE [2]: 46.67 u/L
- ALBUMIN [2]: 3.9 G/DL
- ALKALINE PHOSPHATASE [2]: 274 u/L
- ASPARTATE AMINOTRANSFERASE [2]: 131.67 u/L
- BLOOD UREA NITROGEN [2]: 17.67 mg/dL
- CARBON DIOXIDE [2]: 23.67 mmol/L
- CHLORIDE [2]: 104 MEQ/L
- CHOLESTEROL [2]: 63 mg/dL
- CREATINE PHOSPHOKINASE [2]: 1708.67 u/L
- CREATININE [2]: 0.17 mg/dL
- GLUCOSE [2]: 146 mg/dL
- LACTATE DEHYDROGENASE [2]: 536.33 u/L
- LIPASE [2]: 8.67 u/L
- PHOSPHORUS [2]: 9.2 mg/dL
- POTASSIUM [2]: 5.68 MEQ/L
- SODIUM [2]: 142.1 MEQ/L
- TOTAL BILIRUBIN [2]: 0.17 mg/dL
- TOTAL PROTEIN [2]: 5.43 G/DL
- URIC ACID [2]: 1.53 mg/dL
- ABSOLUTE BASOPHIL [3]: 0 CELLS/uL
- ABSOLUTE EOSINOPHIL [3]: 74 CELLS/uL
- ABSOLUTE LYMPHOCYTE [3]: 15545.33 CELLS/uL
- ABSOLUTE MONOCYTE [3]: 52.33 CELLS/uL
- ABSOLUTE SEGMENTED NEUTROPHIL [3]: 1961.67 CELLS/uL
- BASOPHIL [3]: 0%
- EOSINOPHIL [3]: 0.33%
- ERYTHROCYTE COUNT [3]: 5.87 x10E6/uL
- HEMATOCRIT [3]: 34.5%
- HEMOGLOBIN [3]: 13.8 G/DL
- LEUKOCYTE COUNT [3]: 17.63 x10E3/uL
- LYMPHOCYTE [3]: 88.67%
- MEAN CORPUSCULAR HEMOGLOBIN [3]: 23.5 pg
- MEAN CORPUSCULAR HEMOGLOBIN CONCENTRATION [3]: 40 G/DL
- MEAN CORPUSCULAR VOLUME [3]: 58.73 fL
- MONOCYTE [3]: 0.33%
- NEUTROPHIL [3]: 10.67%
- NUCLEATED RED BLOOD CELLS [3]: 0.33 /100WBC
- PLATELET COUNT [3]: 1240.33 x10E3/uL
- ALANINE AMINOTRANSFERASE [3]: 48 u/L
- ALBUMIN [3]: 3.97 G/DL
- ALKALINE PHOSPHATASE [3]: 270.33 u/L
- ASPARTATE AMINOTRANSFERASE [3]: 91.33 u/L
- BLOOD UREA NITROGEN [3]: 23 mg/dL
- CARBON DIOXIDE [3]: 25 mmol/L
- CHLORIDE [3]: 104.67 MEQ/L
- CHOLESTEROL [3]: 70.33 mg/dL
- CREATINE PHOSPHOKINASE [3]: 333.33 u/L
- CREATININE [3]: 0.21 mg/dL
- GLUCOSE [3]: 128 mg/dL
- LACTATE DEHYDROGENASE [3]: 169 u/L
- LIPASE [3]: 9.67 u/L
- PHOSPHORUS [3]: 10.3 mg/dL
- POTASSIUM [3]: 5.89 MEQ/L
- SODIUM [3]: 144.27 MEQ/L
- TOTAL BILIRUBIN [3]: 0.17 mg/dL
- TOTAL PROTEIN [3]: 5.67 G/DL
- URIC ACID [3]: 1.43 mg/dL
